The values below come from PMC6838324, “A suicide inhibitor of nematode trehalose-6-phosphate phosphatases” (Scientific Reports, 2019).

Where “and” joins values, the source holds several entries; their conditions need not be identical. Identical values can stand only once. Entries after “also recorded” stand apart in the source; their conditions may differ. Like-named read-outs stand apart in the source and are kept apart here.

A word on the inhibition: it is the drop in the measured response relative to a control, in per cent. For orientation: IC50 means the concentration needed to halve the response being measured.

One test concerns the target Acey-TPP (Ancylostoma ceylanicum, UniProt A0A016UGW6). Nature of the test: biochemical. As to conditions: for inhibition at 25 µM: read-out: inhibition of Acey-TPP enzyme activity. As for the experimental part:
(§1) Compounds were prepared in stocks of increasing concentration such that only 2 μL was added to reaction wells, thus keeping the DMSO concentration consistent at 4%. Enzyme in the absence of compound (with DMSO only) was run as a control and after correction for background absorbance, all test wells were scaled relative to the enzyme-only control. IC50 values were determined through fitting using either the software application SDAR[50] or DRfit[51].

The target in a further test is Hcon-TPP1 (Haemonchus contortus, UniProt A0A7I4Z3L8). Nature of the test: biochemical. As to conditions: for inhibition at 25 µM: read-out: inhibition of Hcon-TPP1 enzyme activity; for Ki: read-out: app. Ki, Hcon-TPP1, assuming a competitive inhibition model. As for the experimental part:
as §1

Another test addresses Tcan-TPP (Toxocara canis, UniProt A0A0B2V3X6). Nature of the test: biochemical. The class given is biochemical. As for the experimental part:
as §1

In test [1] the target is TPPs from different nematode and bacterial organisms. Conditions: read-out: inhibition constants; cited from earlier work.
Another test deals with mycobacterial TPPs. Also on record: method as in PMID 30402996. Conditions: cited from earlier work.
In another test the target is TPP from M. tuberculosis (Mycobacterium tuberculosis, UniProt P9WFZ5). The test can be described thus: Phosphatase end-point assay, M. tuberculosis TPP. Conditions: 25 μM compound. The class given is biochemical.
Sequence of TPP from M. tuberculosis (P9WFZ5 whole entry, looked up): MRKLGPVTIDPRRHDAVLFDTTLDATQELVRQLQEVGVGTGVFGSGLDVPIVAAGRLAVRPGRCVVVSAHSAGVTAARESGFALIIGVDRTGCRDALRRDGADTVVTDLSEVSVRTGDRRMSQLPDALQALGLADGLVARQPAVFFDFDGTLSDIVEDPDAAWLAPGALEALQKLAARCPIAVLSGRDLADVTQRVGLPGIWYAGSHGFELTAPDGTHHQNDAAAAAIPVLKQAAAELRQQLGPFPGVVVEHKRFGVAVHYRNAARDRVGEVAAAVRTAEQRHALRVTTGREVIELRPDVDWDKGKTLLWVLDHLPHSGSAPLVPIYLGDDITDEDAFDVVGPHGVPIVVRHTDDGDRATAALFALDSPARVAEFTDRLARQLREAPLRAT
The subject of another test is TPP from S. pneumoniae. The test can be described thus: Phosphatase end-point assay, S. pneumoniae TPP. As to conditions: 25 μM compound.
A further test concerns Tcan-TPP-C215S. Nature of the test: Phosphatase end-point assay, C215S mutant of T. canis TPP. Type of test: biochemical, Toxocara canis. Conditions: 25 μM compound.
Another test has as its target Paer-ecTPP (Pseudomonas aeruginosa, UniProt B3G2E1). The test can be described thus: Phosphatase end-point assay, extra-chromosomal TPP from P. aeruginosa. Type of test: biochemical. As for the experimental part: as §1
The next test concerns H. contortus xL3 larvae. Nature of the test: Motility assay of exsheathed third-stage larvae (xL3) of H. contortus. As to conditions: 25 μM and 100 μM compound. Type of test: cell-based, Haemonchus contortus. As for the experimental part:
The effects of compound 1 were assessed in a motility assay using exsheathed third-stage larvae (xL3s) of H. contortus in 96-well microculture plates (Corning 3635; Life Sciences, USA) and the control compounds moxidectin and monepantel, following the published protocol. In brief, 1 was diluted to the final concentration of 100 µM using Luria Bertani medium (LB) supplemented with 100 IU/mL of penicillin, 100 μg mL^−1 of streptomycin and 2.5 μg mL^−1 of amphotericin (LB*), and then dispensed in triplicate into wells of a 96-well microculture plate using a multichannel pipette. Additionally, the negative controls (LB*, LB* + 0.5% solvent; six wells each), and positive controls (20 µM monepantel; Zolvix, Novartis Animal Health, Switzerland and 20 µM moxidectin; Cydectin, Virbac, France; triplicate wells) and xL3s (~300 per well) were dispensed into wells of the plate using an automated multichannel pipette. Following incubation at 38 °C and 10% CO2 for 72 h, a video recording of 5 s duration was taken of each well using a grayscale camera (Rolera Bolt, QImaging, Canada) and a motorized X-Y axis stage (BioPoint2, Ludl Electronic Products, USA). Videos were processed to calculate a motility index (MI) using an algorithm described previously.

The test system of a further test is T. cati L3 larvae. Nature of the test: L3 larvae survival assay, T. cati. The class given is cell-based. As for the experimental part: (§2) Control larvae were maintained in 0.4% DMSO in Minimal Essential Medium. The survival of L3s exposed to the compound was assessed at several time points after the start of the incubation using a light microscope (at 40× maginification).

For the next test, the system named is TPP from S. maltophilia. Nature of the test: Phosphatase end-point assay, S. maltophilia TPP. As to conditions: 25 μM compound.
Another test deals with T. canis L3 larvae. The test can be described thus: L3 larvae survival assay, T. canis. Type of test: cell-based. As for the experimental part: as §2
[2] abbreviates: listed as N-(phenylthio)phthalimide.
Where [3] appears, read: 25 μM compound, compared with uninhibited enzyme.

Sequence of Paer-ecTPP (B3G2E1 entry or part of it): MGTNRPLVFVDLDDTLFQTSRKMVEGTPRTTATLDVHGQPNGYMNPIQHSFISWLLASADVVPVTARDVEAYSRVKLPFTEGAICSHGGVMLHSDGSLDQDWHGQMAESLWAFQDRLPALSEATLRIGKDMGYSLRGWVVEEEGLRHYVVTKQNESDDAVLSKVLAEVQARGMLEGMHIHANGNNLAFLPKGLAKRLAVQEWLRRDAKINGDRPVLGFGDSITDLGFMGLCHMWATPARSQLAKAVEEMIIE
Sequence of Tcan-TPP (A0A0B2V3X6 entry or part of it): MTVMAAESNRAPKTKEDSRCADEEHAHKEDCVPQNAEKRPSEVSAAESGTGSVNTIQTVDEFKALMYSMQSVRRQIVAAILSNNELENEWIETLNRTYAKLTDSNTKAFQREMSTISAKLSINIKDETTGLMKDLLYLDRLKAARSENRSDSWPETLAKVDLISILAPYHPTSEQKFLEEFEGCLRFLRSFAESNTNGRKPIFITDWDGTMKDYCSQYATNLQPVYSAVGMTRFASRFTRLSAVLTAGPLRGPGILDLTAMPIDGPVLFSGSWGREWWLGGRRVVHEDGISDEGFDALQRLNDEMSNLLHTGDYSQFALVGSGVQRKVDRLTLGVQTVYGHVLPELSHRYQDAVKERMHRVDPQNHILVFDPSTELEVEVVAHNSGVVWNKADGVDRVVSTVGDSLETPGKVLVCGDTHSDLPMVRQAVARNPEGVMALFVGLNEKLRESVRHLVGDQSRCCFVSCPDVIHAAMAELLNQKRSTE
Sequence of Hcon-TPP1 (A0A7I4Z3L8 entry or part of it): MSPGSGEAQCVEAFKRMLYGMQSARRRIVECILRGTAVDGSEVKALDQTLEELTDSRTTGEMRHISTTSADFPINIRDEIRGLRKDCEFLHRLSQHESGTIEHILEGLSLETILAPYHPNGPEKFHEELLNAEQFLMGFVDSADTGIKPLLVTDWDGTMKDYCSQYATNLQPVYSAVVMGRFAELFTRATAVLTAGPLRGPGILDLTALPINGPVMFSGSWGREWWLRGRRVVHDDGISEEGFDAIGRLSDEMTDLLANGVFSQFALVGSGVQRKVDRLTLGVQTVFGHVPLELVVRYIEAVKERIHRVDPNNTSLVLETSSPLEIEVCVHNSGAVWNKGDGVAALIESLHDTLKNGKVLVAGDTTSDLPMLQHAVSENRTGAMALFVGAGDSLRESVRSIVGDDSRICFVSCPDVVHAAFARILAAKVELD
Sequence of Acey-TPP (A0A016UGW6 entry or part of it): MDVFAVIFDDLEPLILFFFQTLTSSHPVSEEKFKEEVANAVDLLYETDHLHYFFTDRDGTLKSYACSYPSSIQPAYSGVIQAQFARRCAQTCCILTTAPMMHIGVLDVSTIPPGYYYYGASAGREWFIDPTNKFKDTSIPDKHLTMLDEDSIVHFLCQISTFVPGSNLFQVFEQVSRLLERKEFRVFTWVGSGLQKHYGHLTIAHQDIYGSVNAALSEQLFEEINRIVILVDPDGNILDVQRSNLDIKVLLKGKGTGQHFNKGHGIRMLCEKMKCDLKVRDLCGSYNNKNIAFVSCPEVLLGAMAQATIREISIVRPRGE
Method for TPP from S. maltophilia: (§3) Phosphatase end-point assays were carried out following a previously established protocol[35]. Briefly, the phosphatase activity of Acey-TPP and Tcan-TPP was assessed using 500 μM trehalose-6-phosphate and 10 μM enzyme to be tested. Reactions were carried out in a volume of 50 μL in assay buffer (100 mM NaCl, 20 mM TRIS, pH 7.5). Individual compounds were added to the reaction mixtures at a final concentration of 25 μM, followed by incubation for 5 min before reactions were initiated by the addition of substrate (final DMSO concentration of 4%).
(§4) Reactions were allowed to proceed for 5 min before quenching with 100 μL of BIOMOL® Green reagent (Enzo Life Sciences, New York, NY, USA). Absorbance at 620 nm was determined using a BioTek® Synergy 2 plate reader (BioTek, Winooski, VT, USA) after an incubation period of 15 min for colour development. All reactions were set up in triplicate in 96-well plates (Corning, Sigma-Aldrich, NSW, Australia) at 25 °C and control experiments in the absence of enzyme were used to correct for background absorbance.
(§5) Raw data were exported as spreadsheets from the plate reader and assembled for statistical analysis with R[48] using the software jBar[49] for calculation of means and standard errors, background correction, normalisation and significance evaluation by a two-sided t-test.
Method for TPP from S. pneumoniae: as §3, §4, §5

Consider `O=C1NC(=O)c2ccccc21` [Compound 3, phthalimide], for which the inhibition at 25 µM on Acey-TPP, at Hcon-TPP1 and at Tcan-TPP (read-out: inhibition of Tcan-TPP enzyme activity) was not above 20% in each case.

For `O=S(=O)(O)OC[C@H]1O[C@H](O[C@H]2O[C@H](CO)[C@@H](O)[C@H](O)[C@H]2O)[C@H](O)[C@@H](O)[C@@H]1O` [trehalose-6-sulphate], in test [1], the Ki is 50 to 300 µM.

As to `OCC1=C[C@@H](N[C@H]2C[C@H](CO)[C@@H](O[C@H]3O[C@@H](CO)[C@H](O)[C@@H](O)[C@@H]3O)[C@H](O)[C@H]2O)[C@H](O)[C@@H](O)[C@@H]1O` [validamycin A], the IC50 in the test with mycobacterial TPPs was 12600 to 15000 µM.

On to `O=C1c2ccccc2C(=O)N1Sc1ccccc1` [Compound 1, N-(phenylthio)phthalimide], for which the “inhibition of phosphatase activity” value against TPP from M. tuberculosis was “only the extra-chromosomal TPP from P. aeruginosa was susceptible to inhibition”; with TPP from S. pneumoniae, “only the extra-chromosomal TPP from P. aeruginosa was susceptible to inhibition”; against Paer-ecTPP (25 μM compound, P. aeruginosa extra-chromosomal TPP), “susceptible to inhibition”; in the test on TPP from S. maltophilia it was “only the extra-chromosomal TPP from P. aeruginosa was susceptible to inhibition”. For the same molecule, the “effect on enzymatic activity of mutant Tcan-TPP-C215S” value with Tcan-TPP-C215S is “did not affect the enzymatic activity”. The Ki on Paer-ecTPP (Paer-ecTPP, assuming a competitive inhibition model, read-out: app. Ki) is 2.1 µM; at Hcon-TPP1, 6 µM; on Hcon-TPP1 (setting [2]), 5.8 µM; at Tcan-TPP (app. Ki, Tcan-TPP, assuming a competitive inhibition model), 0.6 µM and 0.56 µM. In addition, the IC50 on Paer-ecTPP (Paer-ecTPP, phosphatase end-point assay) was determined as 2.1 ± 0.19 µM; against Hcon-TPP1 (Hcon-TPP1, phosphatase end-point assay), 6.6 ± 0.36 µM; at Tcan-TPP, 0.89 ± 0.037 µM. For the same molecule, the entries for the “motility of exsheathed H. contortus larvae (xL3)” value in the test with H. contortus xL3 larvae and with H. contortus xL3 larvae (setting [2]) were “only weakly impaired” and “no bioactivity was observed; also recorded: no significant effects”, respectively. Besides, the “inhibitory effect on phosphatase activity under reducing conditions” value is “entirely suppressed” on Acey-TPP (25 μM compound, 1 mM DTT, Acey-TPP) and “entirely suppressed” against Tcan-TPP (25 μM compound, 1 mM DTT, Tcan-TPP). Also, the “inhibition of Acey-TPP enzyme activity” value against Acey-TPP (setting [3]) was “complete annihilation”. Further, the figures for the inhibition at 25 µM on Acey-TPP and on Hcon-TPP1 were more than 50% and 82%, respectively. The “concentration at which enzymatic activity is almost entirely suppressed” value on Hcon-TPP1 (H. contortus TPP, dose-response) is more than 25 µM. Moreover, the lethality is more than 80% with T. cati L3 larvae (T. cati larvae, 100 μM, after 3 h) and more than 80% in the test with T. canis L3 larvae (T. canis larvae, 100 μM, after 24 h). The LC50 in the test on T. cati L3 larvae (Toxocara cati, 24 h, read-out: half maximum lethal concentration (IC50 in survival assay)) was 9.3 µM; in the test on T. canis L3 larvae (Toxocara canis, 24 h, read-out: half maximum lethal concentration), 61 µM. Moreover, the “inhibition of Tcan-TPP enzyme activity” value against Tcan-TPP (setting [3]) was “complete annihilation”.
